Results as given in patent US10246414B2, “Allosteric modulators of CB1 cannabinoid receptors” (Northeastern University, priority 2012, dated 2019).

molecular target: CB1 cannabinoid receptors (CNR1 cAMP Hunter cell line) (Homo sapiens, UniProt P21554); assay: cAMP Hunter (DiscoveRx HitHunter cAMP XS+) allosteric modulation assay with CP55,940 at EC20; format: cell-based; details: not given
Experimental: Once it was established that the cells were healthy and growing normally, cells were passaged from flasks using cell dissociation reagent buffer and seeded into white walled clear bottom 384-well microplates for compound profiling. For profiling, cells were seeded at a density of 10000 cells per well in a total volume of 20 μL and were allowed to adhere and recover overnight prior to compound addition. Cells were treated the following day using the protocols shown below. cAMP modulation was determined using the DiscoveRx HitHunter cAMP XS+ assay.
Media was aspirated from cells and replaced with 10 μL 1:1 HBSS/Hepes: cAMP XS+Ab reagent. Agonist (CP55,940) dose curves were performed to determine the EC20 value for the following testing with compounds. 5 μL of 4× agonist was added to each well with an equal concentration of vehicle present. EC20 agonist concentration was determined directly from agonist dose curve.
For allosteric determination, cells were preincubated with compound followed by agonist challenge at the EC20 concentration. 5 μL of 4× compound was added to cells and incubated at 37° C. for 30 minutes. 5 μL of 4× EC20 agonist was added to cells and incubated at 37° C. for 30 minutes.
Signal Detection: After appropriate compound incubation, assay signal was generated through incubation with 20 μL cAMP XS+ED/CL lysis cocktail for one hour followed by incubation with 20 μL cAMP XS+EA reagent for three hours at room temperature. Microplates were read following signal generation with a PerkinElmer Envision™ instrument for chemiluminescent signal detection.
Data Analysis: Dose curves were plotted using GraphPad Prism or Activity Base. The percentage activity is calculated using the following formula: % Activity=100%×(1−(mean RLU of test sample−mean RLU of MAX control)/(mean RLU of vehicle control [EC20 for PAM]−mean RLU of MAXcontrol).
Agonist (CP55,940) dose curves were performed for the CNR1 PathHunter and cAMP Hunter cell lines. […] The cAMP assay was performed in the presence of 20 μM forskolin (EC80).

Chain of CB1 cannabinoid receptors (CNR1 cAMP Hunter cell line) (P21554 whole entry): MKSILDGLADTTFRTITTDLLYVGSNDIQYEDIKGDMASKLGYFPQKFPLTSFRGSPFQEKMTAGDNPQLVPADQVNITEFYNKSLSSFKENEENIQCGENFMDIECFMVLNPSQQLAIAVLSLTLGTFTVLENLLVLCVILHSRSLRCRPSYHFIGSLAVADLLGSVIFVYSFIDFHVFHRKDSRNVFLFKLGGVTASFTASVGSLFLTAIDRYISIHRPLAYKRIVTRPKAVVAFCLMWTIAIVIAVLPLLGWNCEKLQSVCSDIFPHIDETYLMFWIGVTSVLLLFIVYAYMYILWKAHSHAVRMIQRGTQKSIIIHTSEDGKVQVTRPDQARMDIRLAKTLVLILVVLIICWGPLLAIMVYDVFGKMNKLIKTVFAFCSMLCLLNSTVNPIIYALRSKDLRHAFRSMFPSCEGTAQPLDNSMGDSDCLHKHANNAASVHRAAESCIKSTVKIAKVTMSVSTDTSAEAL

Row | SMILES | Emax [%] | EC50 [nM]
1 | O=[N+]([O-])CC(c1ccccc1)c1c(-c2ccccc2)[nH]c2ccccc12 (racemic) [Compound 1, 3-(2-Nitro-1-phenylethyl)-2-phenyl-1H-indole, reference compound] | 80 | 
2 | O=[N+]([O-])CC(c1ccccn1)c1c(-c2ccccc2)[nH]c2ccccc12 (racemic) [Compound 10, 3-(2-Nitro-1-(pyridin-2-yl)ethyl)-2-phenyl-1H-indole] | 96 | 456
3 | O=[N+]([O-])C[C@H](c1ccccc1)c1c(-c2ccccc2)[nH]c2ccccc12 (single isomer, unassigned) [Compound 2] | 75 | 
4 | O=[N+]([O-])C[C@@H](c1ccccc1)c1c(-c2ccccc2)[nH]c2ccccc12 (single isomer, unassigned) [Compound 3] | 96 | 
5 | O=[N+]([O-])C[C@H](c1ccccn1)c1c(-c2ccccc2)[nH]c2ccccc12 (single isomer, unassigned) [Compound 11] | 120 | 300
6 | O=[N+]([O-])C[C@@H](c1ccccn1)c1c(-c2ccccc2)[nH]c2ccccc12 (single isomer, unassigned) [Compound 12] | 119 | 417
7 | O=[N+]([O-])CC(c1ccc(N2CCCCC2)cc1)c1c(-c2ccccc2)[nH]c2ccccc12 (stereo not shown) [Compound 4, 3-(2-Nitro-1-(4-(piperidin-1-yl)phenyl)ethyl)-2-phenyl-1H-indole] | 101 | 590
8 | O=[N+]([O-])CC(c1ccc(-c2ccccc2)cc1)c1c(-c2ccccc2)[nH]c2ccccc12 (stereo not shown) [Compound 5, 3-(1-([1,1′-Biphenyl]-4-yl)-2-nitroethyl)-2-phenyl-1H-indole] | 0 | > 10000
9 | O=[N+]([O-])CC(c1ccccc1)c1c(-c2ccc3ccccc3c2)[nH]c2ccccc12 (stereo not shown) [Compound 6] | 65 | 744
10 | O=[N+]([O-])CC(c1ccccc1)c1c(-c2ccccc2)[nH]c2ccc(Cl)cc12 (stereo not shown) [Compound 7, 5-Chloro-3-(2-nitro-1-phenylethyl)-2-phenyl-1H-indole] | 44 | 1010
11 | O=[N+]([O-])c1cccc(-c2c(-c3ccccc3)[nH]c3ccccc23)c1 [Compound 8, 3-(3-Nitrophenyl)-2-phenyl-1H-indole] | 54 | > 10000
12 | O=[N+]([O-])CC(c1ccccc1)c1cn(-c2ccccc2)c2ccccc12 (stereo not shown) [Compound 9, 3-(2-Nitro-1-phenylethyl)-1-phenyl-1H-indole] | 105 | 920
13 | O=[N+]([O-])CC(c1ccccc1)c1c(-c2ccc(F)cc2)[nH]c2ccccc12 (stereo not shown) [Compound 13, 2-(4-Fluorophenyl)-3-(2-nitro-1-phenylethyl)-1H-indole] | 110 | 327
14 | O=[N+]([O-])CC(c1ccccc1)c1c(-c2ccc(Cl)cc2)[nH]c2ccccc12 (stereo not shown) [Compound 14, 2-(4-Chlorophenyl)-3-(2-nitro-1-phenylethyl)-1H-indole] | 115 | 650
15 | O=[N+]([O-])CC(c1ccccc1)c1c(-c2ccc(F)c(Cl)c2)[nH]c2ccccc12 (stereo not shown) [Compound 15, 2-(3-Chloro-4-fluorophenyl)-3-(2-nitro-1-phenylethyl)-1H-indole] | 110 | 411

tested on: extracellular dopamine levels in nucleus accumbens; assay: In vivo microdialysis, dopamine in shell of nucleus accumbens; set-up: species or system Sprague-Dawley male rats; details: 30 mg/kg IP, rat nucleus accumbens shell, dialysate samples every 20 minutes; ANOVA p=0.325, NS
Experimental: Concentric microdialysis probes with 2 mm-long dialysis membranes were prepared as described previously (Pontieri, Tanda & DiChiara 1995). Sprague-Dawley male rats were anesthetized with Equithesin and probes were surgically implanted in the shell of nucleus accumbens (coordinates with respect to bregma: anterior, +2.2; lateral, −1.0; vertical −8.0 from dura). Ringer's solution (147 mM NaCl, 2.2 mM CaCl2, 4.0 mM KCl) was pumped through the dialysis probe at a constant flow rate of 1 uL/minute. […] Collection of dialysate samples started after 20 minutes, with samples collected every 20 minutes and immediately analyzed by a high-performance liquid chromatography system coupled to electrochemical detection to quantify dopamine.
Results are presented as group means (±SEM). Microdialysis data were analyzed using two-way ANOVA.

Row | SMILES | change in extracellular dopamine levels after injection
16 | O=[N+]([O-])CC(c1ccccc1)c1c(-c2ccccc2)[nH]c2ccccc12 (racemic) [Compound 1, 3-(2-Nitro-1-phenylethyl)-2-phenyl-1H-indole, reference compound] | no significant change
